Measured values: patent US20160108049A1 (TAKEDA Gmbh, priority 2011, published 2016)

Tests used:
PDE4B1 = molecular target: T1, PDE4B1 (Homo sapiens, UniProt Q07343); assay: Inhibition of PDE4 activity (PDE4B1, SPA assay); assay type: biochemical; details: recombinant PDE4B1, 0.5 μM cAMP; read-out: PDE4B1 Inhibitory values measured as -logIC50 (converted)
T1 construct: made in house; host or cells: SF21 insect cells (baculovirus; virus made in SF9 cells, pCR-Bac vector)
Outline: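 Baculovirus-expressed enzyme from SF21 cell 1000×g supernatant; substrate 0.5 μM [3H]cAMP in 20 mM Tris pH 7.4, 5 mM Mg2+, 0.1 mg/ml BSA, 10-20% conversion. 5 min preincubation at 37 °C, 15 min reaction, stopped by SPA beads with IBMX; IC50 by non-linear regression.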

human PDE5 = molecular target: T2, human PDE5 (Homo sapiens, UniProt O76074); assay: Inhibition of PDE5 activity (platelet lysate, SPA assay); assay type: biochemical; details: 0.5 μM cGMP, read-out: PDE5 Inhibitory values measured as -logIC50 (converted)
T2 construct: from tissue; host or cells: human platelets from fresh donor blood (platelet lysate)
Outline: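 Human platelet lysate (10,000 g supernatant) served as PDE5 source, with 1 μM motapizone and 10 nM PDE2 inhibitor added, in Tris pH 7.4, 5 mM Mg2+, BSA. Substrate 0.5 μM [3H]cGMP, 10–20% conversion; 5 min preincubation then 15 min at 37 °C, stopped by SPA beads with IBMX. IC50 by non-linear regression.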

T1 sequence (Q07343 whole entry): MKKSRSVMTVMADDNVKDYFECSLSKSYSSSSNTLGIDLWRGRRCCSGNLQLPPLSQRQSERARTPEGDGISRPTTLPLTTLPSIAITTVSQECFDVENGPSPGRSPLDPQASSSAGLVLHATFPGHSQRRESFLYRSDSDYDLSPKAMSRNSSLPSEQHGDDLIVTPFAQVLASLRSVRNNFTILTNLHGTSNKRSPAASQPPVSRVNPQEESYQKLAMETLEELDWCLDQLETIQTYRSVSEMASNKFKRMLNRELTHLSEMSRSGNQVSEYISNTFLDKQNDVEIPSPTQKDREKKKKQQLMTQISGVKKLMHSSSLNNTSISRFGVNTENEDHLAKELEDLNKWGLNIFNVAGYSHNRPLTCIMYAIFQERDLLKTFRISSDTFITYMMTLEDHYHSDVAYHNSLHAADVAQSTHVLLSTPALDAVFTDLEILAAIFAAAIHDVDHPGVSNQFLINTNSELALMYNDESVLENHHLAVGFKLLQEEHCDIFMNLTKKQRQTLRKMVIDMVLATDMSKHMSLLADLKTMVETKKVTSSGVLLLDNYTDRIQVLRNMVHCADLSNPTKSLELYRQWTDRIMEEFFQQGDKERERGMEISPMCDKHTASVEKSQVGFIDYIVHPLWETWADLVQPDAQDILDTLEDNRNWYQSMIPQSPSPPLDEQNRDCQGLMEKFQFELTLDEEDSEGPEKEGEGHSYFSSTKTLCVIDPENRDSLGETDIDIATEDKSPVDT

SMILES	IC50 (PDE4B1) [nM]	IC50 (human PDE5) [nM]
COc1ccc(C2=NN(C3CCN(C(=O)[C@@H](CN(C)C)NC(=O)c4c[nH]c5c(-c6c(OCC7CC7)ccc7c6OCO7)ncnc45)CC3)C(=O)[C@@H]3CCCC[C@H]23)cc1OC [Example 96, 4-[5-(cyclopropylmethoxy)-1,3-benzodioxol-4-yl]-N-[(2R)-1-{4-[(4aS,8aR)-4-(3,4-dimethoxyphenyl)-1-oxo-4a,5,6,7,8,8a-hexahydrophthalazin-2(1H)-yl]piperidin-1-yl}-3-(dimethylamino)-1-oxopropan-2-yl]-5H-pyrrolo[3,2-d]pyrimidine-7-carboxamide]	1 to 10	1 to 10
COc1ccc(C2=NN(C3CCN(C(=O)[C@@H](CCSC)NC(=O)c4c[nH]c5c(-c6c(OCC7CC7)ccc7c6OCO7)ncnc45)CC3)C(=O)[C@@H]3CCCC[C@H]23)cc1OC [Example 98, 4-[5-(cyclopropylmethoxy)-1,3-benzodioxol-4-yl]-N-[(2R)-1-{4-[(4aS,8aR)-4-(3,4-dimethoxyphenyl)-1-oxo-4a,5,6,7,8,8a-hexahydrophthalazin-2(1H)-yl]piperidin-1-yl}-4-(methylsulfanyl)-1-oxobutan-2-yl]-5H-pyrrolo[3,2-d]pyrimidine-7-carboxamide]	< 1	< 1
COc1ccc(C2=NN(C3CCN(C(=O)[C@@H](CCC(=O)OCc4ccccc4)NC(=O)c4c[nH]c5c(-c6c(OCC7CC7)ccc7c6OCO7)ncnc45)CC3)C(=O)[C@@H]3CCCC[C@H]23)cc1OC [Example 100, Benzyl (4R)-4-[({4-[5-(cyclopropylmethoxy)-1,3-benzodioxol-4-yl]-5H-pyrrolo[3,2-d]pyrimidin-7-yl}carbonyl)amino]-5-{4-[(4aS,8aR)-4-(3,4-dimethoxyphenyl)-1-oxo-4a,5,6,7,8,8a-hexahydrophthalazin-2(1H)-yl]piperidin-1-yl}-5-oxopentanoate]	1 to 10	1 to 10

More lines, now with the values ahead:

IC50 (PDE4B1) [nM]	IC50 (human PDE5) [nM]	SMILES
1 to 10	1 to 10	COc1ccc(C2=NN(C3CCN(C(=O)[C@H](CN(C)C)NC(=O)c4c[nH]c5c(-c6c(OCC7CC7)ccc7c6OCO7)ncnc45)CC3)C(=O)[C@@H]3CCCC[C@H]23)cc1OC [Example 97, 4-[5-(cyclopropylmethoxy)-1,3-benzodioxol-4-yl]-N-[(2S)-1-{4-[(4aS,8aR)-4-(3,4-dimethoxyphenyl)-1-oxo-4a,5,6,7,8,8a-hexahydrophthalazin-2(1H)-yl]piperidin-1-yl}-3-(dimethylamino)-1-oxopropan-2-yl]-5H-pyrrolo[3,2-d]pyrimidine-7-carboxamide]
1 to 10	1 to 10	COc1ccc(C2=NN(C3CCN(C(=O)[C@@H](Cc4ccc(Br)cc4)NC(=O)c4c[nH]c5c(-c6c(OCC7CC7)ccc7c6OCO7)ncnc45)CC3)C(=O)[C@@H]3CCCC[C@H]23)cc1OC [Example 99, N-[(2R)-3-(4-bromophenyl)-1-{4-[(4aS,8aR)-4-(3,4-dimethoxyphenyl)-1-oxo-4a,5,6,7,8,8a-hexahydrophthalazin-2(1H)-yl]piperidin-1-yl}-1-oxopropan-2-yl]-4-[5-(cyclopropylmethoxy)-1,3-benzodioxol-4-yl]-5H-pyrrolo[3,2-d]pyrimidine-7-carboxamide]
1 to 10	1 to 10	COc1ccc(C2=NN(C3CCN(C(=O)[C@@H](CCC(=O)O)NC(=O)c4c[nH]c5c(-c6c(OCC7CC7)ccc7c6OCO7)ncnc45)CC3)C(=O)[C@@H]3CCCC[C@H]23)cc1OC [Example 101, (4R)-4-[({4-[5-(cyclopropylmethoxy)-1,3-benzodioxol-4-yl]-5H-pyrrolo[3,2-d]pyrimidin-7-yl}carbonyl)amino]-5-{4-[(4aS,8aR)-4-(3,4-dimethoxyphenyl)-1-oxo-4a,5,6,7,8,8a-hexahydrophthalazin-2(1H)-yl]piperidin-1-yl}-5-oxopentanoic acid]
